From patent US8795705B2, “Dermatologic compositions comprising pyrrolidone-5-carboxylic acid and at least one entity chosen from citrulline, arginine and asparagine, and uses thereof in the treatment of atopic dermatitis” (Galderma Research & Development, priority 2007, dated 2014)
Where a name gives a salt, the structure may show the parent alone.

Experiment: Assessment of hygroscopic properties: residual water weight of solutions as a function of time in a thermal container
Format: physicochemical
Settings: 50° C., humidity 30%, each compound at 5% in water, after 120 minutes, versus water as negative control (FIG. 1)
Protocol: Each compound was dissolved in water (w/w) to obtain a 5% solution. To prepare a 5% two-amino acid solution, the L-arginine powder was dissolved directly in the 5% PCA sodium salt solution (w/w). To assess the hygroscopic properties of amino acids, we studied the residual water weight of different solutions as a function of time. We determined the weight of residual water in each solution after different times in an atmosphere in which temperature and humidity were controlled in a thermal container (Vötsch VC0018). The temperature used for our assays was initially set at 50° C. and later at 30° C. to approximate skin conditions more closely. Humidity was set at 30%. Using these parameters, we determined the weight of each solution before heating it and at different times during the heating. The heating lasted for 120 minutes at 50° C. and data was recorded from 45 to 120 minutes. At 30° C. the heating lasted for 135 minutes and data was recorded from 90 to 135 minutes. The residual weight expected at the end of the study which corresponds to the weight of the compound in the solution was calculated (for example, if the initial total weight for a 5% solution was 100 mg, the weight of the compound was 5 mg). The residual water weight of each solution was obtained by subtracting the expected weight of the compound from the total weight of the solution at different times. […]

| Compound | percentage of residual water weight (evaporation of the water contained in the solutions) |
| --- | --- |
| N=C(N)NCCC[C@H](N)C(=O)O [L-Arginine] | decreased the evaporation of the water |
| O=C1CCC(C(=O)O)N1 (centres unmarked) [PCA Na, 2-Pyrrolidone-5-carboxylic acid sodium salt] | decreased the evaporation of the water |
